Like-named read-outs stand apart in the source and are kept apart here.
Legend:
thrombin = thrombin (Homo sapiens, UniProt P00734); assay: Thrombin amidolytic assay (Chromozym TH)
Method: (§2) In the assays for thrombin, prothrombinase and factor Xa, a synthetic chromogenic substrate is added to a solution containing test compound and the enzyme of interest and the residual catalytic activity of that enzyme is determined spectrophotometrically. The IC50 of a compound is determined from the substrate turnover. […] The factor Xa and thrombin assays are performed at room temperature, in 0.02 M Tris.HCl buffer, pH 7.5, containing 0.15 M NaCl.

factor Xa = factor Xa (Homo sapiens, UniProt P00742); assay: Factor Xa amidolytic assay (chromogenic substrate S-2765)
Method: as §2

prothrombinase complex = prothrombinase complex (Homo sapiens, UniProt P00742); assay: Prothrombinase inhibition assay, plasma free system; format: biochemical
Method: The prothrombinase inhibition assay is performed in a plasma free system with modifications to the method described by Sinha, U. et al., Thromb. […] Specifically, the activity of the prothrombinase complex is determined by measuring the time course of thrombin generation using the p-nitroanilide substrate Chromozym TH. […] Aliquots from the complex-inhibitor mixture are added to prothrombin (1 nM) and Chromozym TH (0.1 mM). […] Eight different concentrations of inhibitor are assayed in duplicate. A standard curve of thrombin generation by an equivalent amount of untreated complex is used for determination of percent inhibition.

TPA = TPA (Homo sapiens, UniProt P00750); assay: In vitro protease activity assay, TPA; format: biochemical
Chain of TPA (P00750 36-562, species assumed): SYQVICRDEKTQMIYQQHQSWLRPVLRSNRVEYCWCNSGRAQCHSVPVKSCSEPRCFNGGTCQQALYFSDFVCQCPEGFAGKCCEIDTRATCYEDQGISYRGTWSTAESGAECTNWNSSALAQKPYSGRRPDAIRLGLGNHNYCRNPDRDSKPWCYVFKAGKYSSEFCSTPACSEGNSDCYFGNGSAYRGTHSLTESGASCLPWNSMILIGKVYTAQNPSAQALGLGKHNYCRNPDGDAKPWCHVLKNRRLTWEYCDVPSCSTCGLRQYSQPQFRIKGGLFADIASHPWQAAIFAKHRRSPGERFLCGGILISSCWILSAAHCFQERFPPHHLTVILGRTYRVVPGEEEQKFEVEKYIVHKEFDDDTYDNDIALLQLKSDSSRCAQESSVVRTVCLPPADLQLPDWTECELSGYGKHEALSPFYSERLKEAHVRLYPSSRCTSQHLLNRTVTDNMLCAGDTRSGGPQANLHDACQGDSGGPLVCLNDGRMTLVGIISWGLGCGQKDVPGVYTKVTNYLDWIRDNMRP
Text: (§1) Evaluation of the compounds of this invention is guided by in vitro protease activity assays (see below) and in vivo studies to evaluate antithrombotic efficacy, and effects on hemostasis and hematological parameters (see below).

APC = APC (Homo sapiens, UniProt P04070); assay: In vitro protease activity assay, APC; format: biochemical
Chain of APC (P04070 212-450 limits assumed): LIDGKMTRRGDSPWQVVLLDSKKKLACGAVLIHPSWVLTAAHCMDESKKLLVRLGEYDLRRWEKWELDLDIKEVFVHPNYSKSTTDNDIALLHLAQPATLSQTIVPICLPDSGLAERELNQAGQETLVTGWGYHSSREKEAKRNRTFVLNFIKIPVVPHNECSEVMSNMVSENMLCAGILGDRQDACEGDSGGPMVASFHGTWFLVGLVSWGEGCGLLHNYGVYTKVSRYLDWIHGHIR
Chain of APC (P04070 43-197 limits assumed): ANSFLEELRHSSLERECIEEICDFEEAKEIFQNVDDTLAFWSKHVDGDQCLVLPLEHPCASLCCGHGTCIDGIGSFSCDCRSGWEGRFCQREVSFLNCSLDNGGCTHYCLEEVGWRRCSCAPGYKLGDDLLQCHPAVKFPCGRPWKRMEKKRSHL
Text: as §1

PLASMIN = target: T1, PLASMIN (Homo sapiens, UniProt P00747); assay: In vitro protease activity assay, plasmin; format: biochemical
T1 construct: PLASMIN
T1 sequence (P00747 581-810 limits assumed, species assumed): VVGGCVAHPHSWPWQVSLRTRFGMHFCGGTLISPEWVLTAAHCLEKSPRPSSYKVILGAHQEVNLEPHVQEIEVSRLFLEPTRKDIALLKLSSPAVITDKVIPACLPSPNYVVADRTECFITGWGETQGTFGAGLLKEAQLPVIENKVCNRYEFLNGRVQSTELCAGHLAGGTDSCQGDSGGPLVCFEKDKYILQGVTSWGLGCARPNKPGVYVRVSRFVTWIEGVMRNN
T1 sequence (P00747 97-580 limits assumed, species assumed): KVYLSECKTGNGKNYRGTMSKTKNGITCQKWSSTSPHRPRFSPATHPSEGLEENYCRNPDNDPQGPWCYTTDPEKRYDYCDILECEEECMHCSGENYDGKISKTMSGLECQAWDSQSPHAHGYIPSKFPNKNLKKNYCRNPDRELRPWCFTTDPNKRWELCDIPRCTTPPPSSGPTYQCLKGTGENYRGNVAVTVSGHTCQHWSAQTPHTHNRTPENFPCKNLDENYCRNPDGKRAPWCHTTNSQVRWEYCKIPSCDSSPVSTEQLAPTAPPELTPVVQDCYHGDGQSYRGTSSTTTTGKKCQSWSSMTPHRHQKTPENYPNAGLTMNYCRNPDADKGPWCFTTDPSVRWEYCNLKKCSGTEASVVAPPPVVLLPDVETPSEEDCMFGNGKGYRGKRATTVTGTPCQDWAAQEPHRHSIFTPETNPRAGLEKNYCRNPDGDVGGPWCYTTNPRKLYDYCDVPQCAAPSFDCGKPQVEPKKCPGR
Text: as §1

[1] = Table 4, read-out: IC50 (nM) Prothrombinase
[2] = Table 6, read-out: IC50 (nM) Prothrombinase

Chain of prothrombinase complex (P00742 235-488 limits assumed): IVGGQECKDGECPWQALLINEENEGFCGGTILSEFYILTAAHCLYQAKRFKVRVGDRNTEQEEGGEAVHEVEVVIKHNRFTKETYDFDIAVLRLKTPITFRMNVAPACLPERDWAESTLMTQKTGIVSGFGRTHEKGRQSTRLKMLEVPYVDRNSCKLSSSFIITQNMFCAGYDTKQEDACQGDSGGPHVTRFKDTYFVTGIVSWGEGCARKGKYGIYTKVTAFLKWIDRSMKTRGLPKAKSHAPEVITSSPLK
Chain of prothrombinase complex (P00742 41-179 limits assumed): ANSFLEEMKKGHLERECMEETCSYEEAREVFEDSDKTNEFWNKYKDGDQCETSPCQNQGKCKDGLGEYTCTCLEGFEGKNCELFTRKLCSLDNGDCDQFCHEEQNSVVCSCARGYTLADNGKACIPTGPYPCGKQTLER
Chain of prothrombinase complex (P12259 29-737 partner limits assumed): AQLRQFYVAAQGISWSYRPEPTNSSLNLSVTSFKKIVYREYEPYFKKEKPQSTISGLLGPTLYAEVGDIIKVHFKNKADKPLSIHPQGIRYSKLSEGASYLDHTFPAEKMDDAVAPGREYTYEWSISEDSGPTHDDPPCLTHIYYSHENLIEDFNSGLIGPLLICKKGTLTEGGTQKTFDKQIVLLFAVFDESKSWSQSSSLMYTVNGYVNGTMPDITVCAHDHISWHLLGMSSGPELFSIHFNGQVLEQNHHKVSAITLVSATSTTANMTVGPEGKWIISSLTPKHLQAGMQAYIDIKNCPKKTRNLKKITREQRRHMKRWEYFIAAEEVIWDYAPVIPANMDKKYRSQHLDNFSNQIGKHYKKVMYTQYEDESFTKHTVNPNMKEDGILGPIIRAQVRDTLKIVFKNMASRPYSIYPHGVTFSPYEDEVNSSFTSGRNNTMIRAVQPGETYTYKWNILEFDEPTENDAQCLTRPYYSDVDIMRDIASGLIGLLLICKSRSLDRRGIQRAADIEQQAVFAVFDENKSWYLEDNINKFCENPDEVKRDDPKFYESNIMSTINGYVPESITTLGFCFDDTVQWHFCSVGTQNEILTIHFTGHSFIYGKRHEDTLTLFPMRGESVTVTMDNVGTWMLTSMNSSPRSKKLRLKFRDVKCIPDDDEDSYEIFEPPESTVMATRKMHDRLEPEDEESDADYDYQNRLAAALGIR
Chain of prothrombinase complex (P12259 1574-2224 partner limits assumed): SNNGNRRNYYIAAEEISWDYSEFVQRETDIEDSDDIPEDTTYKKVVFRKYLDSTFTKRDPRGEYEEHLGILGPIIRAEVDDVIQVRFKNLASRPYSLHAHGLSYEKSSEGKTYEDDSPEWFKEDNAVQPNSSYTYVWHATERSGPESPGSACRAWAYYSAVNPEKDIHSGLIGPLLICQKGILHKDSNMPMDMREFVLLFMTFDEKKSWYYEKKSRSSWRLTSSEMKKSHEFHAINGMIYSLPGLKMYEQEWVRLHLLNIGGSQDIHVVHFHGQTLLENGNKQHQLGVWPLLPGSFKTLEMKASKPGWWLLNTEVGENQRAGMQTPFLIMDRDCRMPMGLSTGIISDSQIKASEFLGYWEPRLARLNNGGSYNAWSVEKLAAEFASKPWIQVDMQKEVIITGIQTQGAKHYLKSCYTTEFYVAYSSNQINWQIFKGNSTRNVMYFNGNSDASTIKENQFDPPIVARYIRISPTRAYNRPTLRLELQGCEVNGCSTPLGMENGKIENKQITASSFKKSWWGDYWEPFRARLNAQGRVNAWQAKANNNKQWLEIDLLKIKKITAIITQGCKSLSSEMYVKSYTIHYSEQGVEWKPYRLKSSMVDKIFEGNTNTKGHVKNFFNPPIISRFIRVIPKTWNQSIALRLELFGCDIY
Chain of factor Xa (P00742 235-488 limits assumed): as the sequence (P00742 235-488 limits assumed) above
Chain of factor Xa (P00742 41-179 limits assumed): as the sequence (P00742 41-179 limits assumed) above

SMILES | IC50 (thrombin) | IC50 (factor Xa) | IC50 (prothrombinase complex; read-out: IIASE) | other results
N=C(N)c1ccc2ccc(CN3c4ccc(OC5CCNCC5)cc4C=CS3(=O)=O)cc2c1 [Example 1] | 136000 nM | 1030 nM | 15800 nM | –
CC(=N)N1CCC(Oc2ccc(N(Cc3cc4cc(C(=N)N)ccc4n3C)S(C)(=O)=O)cc2)CC1 [Compound 15] | 11800 nM | 30.6 nM | – | IC50 (prothrombinase complex; [1]): 66.5 nM
NC(=O)c1ccc2ccc(CN3c4ccc(OC5CCNCC5)cc4CCS3(=O)=O)cc2c1 [Example 5] | – | 1310 nM | 1290 nM | –
CC(=N)N1CCC(Oc2ccc(N(Cc3ccc(-c4cccc(C(=N)N)c4)cc3)S(C)(=O)=O)cc2)CC1 [Compound 12] | > 11000 nM | 25.2 nM | – | IC50 (prothrombinase complex; Table 3, read-out: IC50 (nM) Prothrombinase): 730 nM
N=C(N)c1ccc2ccc(CN3c4ccc(OC5CCNCC5)cc4CCS3(=O)=O)cc2c1 [Example 4] | 256000 nM | 1180 nM | 2000 nM | –
CC(=N)N1CCC(Oc2ccc(N(Cc3cc(C)nn3-c3cccc(C(=N)N)c3)S(C)(=O)=O)cc2)CC1 [Compound 16] | > 11000 nM | – | – | –
CC(=N)N1CCC(Oc2ccc3c(c2)CCS(=O)(=O)N3Cc2ccc3ccc(C(=N)N)cc3c2)CC1 [Example 6] | 116000 nM | 12 nM | 12.2 nM | IC50 (TPA): 4530 nM; IC50 (APC): 3850 nM; IC50 (PLASMIN): 2360 nM
CCOC(=O)CS(=O)(=O)N(Cc1cc2cc(C(=N)N)ccc2s1)c1ccc(OC2CCN(C(C)=N)CC2)cc1 [Compound 42] | 12000 nM | 9.1 nM | – | IC50 (prothrombinase complex; [2]): 8.4 nM
CC(=N)N1CCC(Oc2ccc(N(Cc3cc(C)n(-c4cccc(C(=N)N)c4)n3)S(C)(=O)=O)cc2)CC1 [Compound 17] | > 11000 nM | – | – | –
CC(=N)N1CCC(Oc2ccc(N(Cc3cc4cc(C(=N)N)ccc4s3)S(C)(=O)=O)cc2)CC1 [Compound 13] | 30900 nM | – | – | –
N=C(N)c1ccc2ccc(CN3c4ccc(OC5CCN(C(=N)N)CC5)cc4CCS3(=O)=O)cc2c1 [Example 7] | 24800 nM | 15.3 nM | 33.2 nM | IC50 (TPA): 5960 nM; IC50 (APC): 3370 nM; IC50 (PLASMIN): 2230 nM
CS(=O)(=O)N(Cc1ccc2ccc(C(=N)N)cc2c1)c1ccc(C(=O)N2CCCC2C(N)=O)cc1 (stereo not shown) [Example 24] | – | – | – | IC50 (factor Xa; read-out: XA, Examples 1-26 table): 3440 nM
CC(=N)N1CCC(Oc2ccc(N(Cc3ccc4ccc(C(=N)N)cc4c3)S(C)(=O)=O)cc2)CC1 [Compound 2] | 95200 nM | 6.3 nM | – | IC50 (prothrombinase complex; [1]): 7 nM
CC(=N)N1CCC(Oc2ccc3c(c2)C=CS(=O)(=O)N3Cc2ccc3ccc(C(=N)N)cc3c2)CC1 [Example 2] | 117000 nM | 6.41 nM | 64.6 nM | IC50 (TPA): 1600 nM; IC50 (APC): 1880 nM; IC50 (PLASMIN): 2350 nM
CC(=N)N1CCC(Oc2ccc(N(Cc3cc4cc(C(=N)N)ccc4s3)S(=O)(=O)CC(=O)O)cc2)CC1 [Compound 43] | 193000 nM | 3.5 nM | – | IC50 (prothrombinase complex; [2]): 7.6 nM
CC(=N)N1CCC(Oc2ccc(N(Cc3cccc(-c4cccc(C(=N)N)c4)c3)S(C)(=O)=O)cc2)CC1 [Compound 3] | 133000 nM | – | – | –
N=C(N)c1ccc2ccc(CN3c4ccc(OC5CCN(C(=N)N)CC5)cc4C=CS3(=O)=O)cc2c1 [Example 3] | 16700 nM | 11.3 nM | 10 nM | IC50 (TPA): 1210 nM; IC50 (APC): 895 nM; IC50 (PLASMIN): 1140 nM
CS(=O)(=O)N(Cc1ccc2ccc(C(=N)N)cc2c1)c1ccc(C(=O)N2CCC[C@H]2C(N)=O)cc1 [Compound 25] | 146000 nM | 4060 nM | – | IC50 (prothrombinase complex; Table 5, read-out: IC50 (nM) Prothrombinase): 95000 nM
CC(=N)N1CCC(Oc2ccc(N(Cc3cccc(-c4cccc(C(=N)N)c4)c3)S(=O)(=O)CC(=O)O)cc2)CC1 [Compound 41] | 39200 nM | 3.6 nM | – | IC50 (prothrombinase complex; [2]): 6.6 nM

— patent publication US20020019394A1, “Bicyclic sulfonyl amino inhibitors of factor Xa” (priority 2000, published 2002)
